Data: patent US9181189B2, “Lipogenesis inhibitor compounds” (PIERRE FABRE DERMO-COSMETIQUE, priority 2011, dated 2015)

Legend:
[1] = tested on: differentiated sebocytes (Tel-E6E7 line); assay: Production of intracellular lipids by differentiated sebocytes (Nile Red / Adipored quantitation); assay type: cell-based, human; conditions: for production of lipids by the sebocytes: Tel-E6E7 line differentiated 7 days in the presence of testosterone and other supplements, FIG. 1; for inhibitor effect on lipogenesis directly induced by DHT: Tel-E6E7 line differentiated in the presence of DHT and other supplements, FIG. 2
Method: The Tel-E6E7 line (courtesy of Dr. Stephen Lyle, University of Massachusetts, USA) is a human epithelial line derived from stem cells of the hair follicle bulb.
Differentiation into sebocytes of the Tel-E6E7 line was conducted under the conditions described by S. Lyle. The cells were seeded in 24-well plates at a density of 25 000 cells/cm^2 in DME medium supplemented with 46% HamF12 medium, 6% foetal calf serum (FCII, Hyclone), 2% human serum and 10 nM EGF. Two days after seeding, the differentiation of the cells into sebocytes was induced by adding the following supplements to the culture medium: 0.1 μM testosterone (or DHT (0.1 μM)), 1 μM Troglitazone, 100 μM WyA4643 and 10 nM Insulin. The derivatives to be tested were added at the same time. Sebocyte differentiation was continued for 7 days. The culture medium and the derivatives to be tested were renewed every 2-3 days. The production of intracellular lipids was measured by quantitation of the Nile Red marker (Adipored kit, Lonza) and following the manufacturer's instructions. The amount of measured fluorescence (Relative Fluorescence Units) is proportional to the quantity of accumulated neutral intracellular lipids. All tested conditions were performed in duplicate and repeated three times.
The inventors studied the variations in lipid levels produced by the sebocytes after a differentiation time of 7 days in the presence of testosterone treated with the derivatives of the present invention.

type-1 5-α-reductase = biological target: T1, type-1 5-α-reductase (Homo sapiens, UniProt P18405); conditions: fibroblast cultures; cited from earlier work
T1 construct: endogenous in cells
T1 sequence (P18405 1-259): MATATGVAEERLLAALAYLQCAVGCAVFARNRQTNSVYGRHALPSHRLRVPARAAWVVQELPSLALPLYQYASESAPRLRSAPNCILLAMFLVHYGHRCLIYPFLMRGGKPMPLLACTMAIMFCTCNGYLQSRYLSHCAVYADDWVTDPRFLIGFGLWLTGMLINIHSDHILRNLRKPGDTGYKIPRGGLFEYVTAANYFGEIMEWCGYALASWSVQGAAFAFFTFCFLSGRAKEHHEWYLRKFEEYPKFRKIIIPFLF

| Structure (SMILES) | production of lipids by the sebocytes ([1]; 10 μM) | production of lipids by the sebocytes ([1]; 5 μM) | inhibiting effect on type-1 5-α-reductase (type-1 5-α-reductase) | inhibitor effect on lipogenesis directly induced by DHT [1] |
| --- | --- | --- | --- | --- |
| CCCCCCCCCCCC(=O)OCC(O)COC(=O)C1CCCNC1 (centres unmarked) [3-(dodecanoyloxy)-2-hydroxypropyl piperidine-3-carboxylate] | significant decrease |  |  |  |
| CCCCCCCCCCCC(=O)OCC(O)COC(=O)c1cccnc1 (centres unmarked) [glyceryl laurate nicotinate, 3-(dodecanoyloxy)-2-hydroxypropyl nicotinate] | decreases most significantly | decreases most significantly |  |  |
| CCCCCCCCCCCC(=O)OCC(O)CO (centres unmarked) [glyceryl laurate, 2,3-dihydroxypropyl dodecanoate] | does not reach the significance threshold | does not reach the significance threshold | inhibiting effect |  |
| O=C(O)c1cccnc1 [nicotinic acid] |  |  |  | do not show any inhibitor effect |
| O=C(O)C1CCCNC1 (centres unmarked) [nipecotic acid] |  |  |  | do not show any inhibitor effect |
